# Values of other authors in patent US20100197018A1, “USE OF SUBSTRATES AS PHARMACOLOGICAL CHAPERONES” (AMICUS THERAPEUTICS, INC., priority 2007, published 2010).
# Read-outs that look alike come from different tables or passages of the source. Marks after values point to notes of the source that are not given here.
# Legend:
# heparan-N-sulfatase = target: T1, heparan-N-sulfatase (Homo sapiens, UniProt P51688); settings: for pH optimum of the enzyme for the substrate: purified enzyme; for Relative catalytic efficiency*: GlcNS = 1.00
# T1 sequence (P51688 21-502): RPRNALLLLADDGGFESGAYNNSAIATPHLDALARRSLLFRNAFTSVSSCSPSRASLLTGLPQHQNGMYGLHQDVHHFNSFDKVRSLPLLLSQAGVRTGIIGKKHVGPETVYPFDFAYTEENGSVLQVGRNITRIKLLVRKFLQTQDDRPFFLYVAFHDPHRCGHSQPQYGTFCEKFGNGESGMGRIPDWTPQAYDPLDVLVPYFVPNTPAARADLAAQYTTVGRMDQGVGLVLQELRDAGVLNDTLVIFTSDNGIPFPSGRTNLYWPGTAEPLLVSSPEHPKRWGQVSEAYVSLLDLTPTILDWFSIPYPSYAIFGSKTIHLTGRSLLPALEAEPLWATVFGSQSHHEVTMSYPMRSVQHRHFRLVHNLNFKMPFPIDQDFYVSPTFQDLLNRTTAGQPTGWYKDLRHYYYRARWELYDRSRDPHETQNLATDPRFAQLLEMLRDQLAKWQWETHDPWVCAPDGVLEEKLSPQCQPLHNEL
# [1] = target: T2, N-acetyl-glucosamine-6-sulfate sulfatase (6S) Form A (Homo sapiens, UniProt P15586); settings: for kcat. (turnover number) / Relative catalytic efficiency* / Km: Form A; for Relative catalytic efficiency*: kcat./Km calculated relative to a value for GlcNAc6S = 1; for Km: read-out: Km; for pH optimum: Table 6
# T2 sequence (P15586 37-552): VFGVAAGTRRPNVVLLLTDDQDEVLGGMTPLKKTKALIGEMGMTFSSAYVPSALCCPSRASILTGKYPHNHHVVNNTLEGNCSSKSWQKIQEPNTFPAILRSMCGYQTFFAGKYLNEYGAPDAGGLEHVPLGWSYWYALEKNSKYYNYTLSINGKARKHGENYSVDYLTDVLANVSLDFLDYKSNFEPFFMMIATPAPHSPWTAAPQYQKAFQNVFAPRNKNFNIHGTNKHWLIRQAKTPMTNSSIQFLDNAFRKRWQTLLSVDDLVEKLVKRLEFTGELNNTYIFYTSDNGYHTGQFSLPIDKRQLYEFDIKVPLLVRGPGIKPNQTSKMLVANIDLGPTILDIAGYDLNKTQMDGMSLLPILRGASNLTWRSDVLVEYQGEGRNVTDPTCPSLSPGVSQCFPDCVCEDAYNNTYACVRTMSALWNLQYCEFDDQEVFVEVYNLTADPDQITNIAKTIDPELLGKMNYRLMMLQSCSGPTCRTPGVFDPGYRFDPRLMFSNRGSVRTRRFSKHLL
# iduronate-2-sulfatase = target: T3, iduronate-2-sulfatase (Homo sapiens, UniProt P22304); settings: for pH optimum: Table 4, cells marked * (not optimum pH) left out; for Relative catalytic efficiency: IdoA2S-anM = 1.0; for activity as % of maximal activity: at pH 6.3; for pH of maximal activity: text b65, highly sulfated tetrasaccharide substrates
# T3 sequence (P22304 34-550): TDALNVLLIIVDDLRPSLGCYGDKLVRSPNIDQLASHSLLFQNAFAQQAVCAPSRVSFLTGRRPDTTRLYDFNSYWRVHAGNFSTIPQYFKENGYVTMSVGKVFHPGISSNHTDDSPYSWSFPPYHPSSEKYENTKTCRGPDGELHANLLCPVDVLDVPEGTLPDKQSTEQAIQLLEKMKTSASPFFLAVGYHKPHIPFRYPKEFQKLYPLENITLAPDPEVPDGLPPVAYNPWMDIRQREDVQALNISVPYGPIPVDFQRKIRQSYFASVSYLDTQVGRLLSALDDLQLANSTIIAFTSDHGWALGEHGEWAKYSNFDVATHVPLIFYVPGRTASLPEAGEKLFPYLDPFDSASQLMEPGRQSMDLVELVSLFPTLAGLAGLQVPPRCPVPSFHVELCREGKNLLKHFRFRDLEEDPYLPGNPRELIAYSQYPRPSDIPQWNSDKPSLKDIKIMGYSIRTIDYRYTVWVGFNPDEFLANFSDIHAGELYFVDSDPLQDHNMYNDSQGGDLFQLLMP
# [2] = rows whose other values are marked †
# [3] = values marked † (60° C. per footnote), pH: GlcNS 5.6, GalNS 5.6, GlcNS-IdOA 5.4
# [4] = 37°, pH: GlcNS-Ido 6.7, GlcNS-Ido2S 5.5, GlcNS-IdOA 5.6, GlcNS-IdoA-GlcNS-IdOA 5.6, GlcNS-IdoA2S-anM6S 3.6, GlcNS6S-Ido 4.2, GlcNS6S-Ido2S 3.8, GlcNS6S-IdOA 4.2
# [5] = at the optimum pH of the substrate analog
# [6] = not optimum pH (*): IdoA2S-anM6S at pH 5.0, IdoA2S-anT4S at pH 4.0
molecule,measurement,setting,value
2-sulphoamino-glucosamine [GlcNS],"kcat. (turnover number), value in parentheses","heparan-N-sulfatase; in parentheses under the † value, parentheses not explained, pH 5.6",(0.0005) mol/min per mol of enzyme
same,pH optimum of the enzyme for the substrate,heparan-N-sulfatase,5.6
same,Relative catalytic efficiency*,heparan-N-sulfatase; [2],1.00
same,Km,heparan-N-sulfatase; [3],0.7 µM
same,kcat. (turnover number),heparan-N-sulfatase; [3],0.0021† mol/min per mol of enzyme
"CC(=O)N[C@H]1[C@@H](O[C@H]2[C@H](O)[C@@H](OS(=O)(=O)O)[C@H](O[C@H]3[C@H](O)[C@@H](CO)O[C@@H]3COS(=O)(=O)O)O[C@H]2C(=O)O)O[C@H](COS(=O)(=O)O)[C@@H](O)[C@@H]1O [GlcNAc6S-IdoA2S-anM6S, O-(α-N-acetylglucosamine 6-sulphate)-(1-4)-L-O-(α-iduronic acid 2-sulphate)-(1-4)-D-O-2,5-anhydro-mannitol 6 sulphate]",kcat. (turnover number),[1],7.08 mol/min per mol of enzyme
same,Relative catalytic efficiency*,[1],402
same,Km,[1],760 nM
same,pH optimum,[1],4.3
"N[C@H]1[C@@H](O[C@H]2[C@H](O)[C@@H](OS(=O)(=O)O)[C@H](O[C@H]3[C@H](O)[C@@H](CO)O[C@@H]3COS(=O)(=O)O)O[C@H]2C(=O)O)O[C@H](COS(=O)(=O)O)[C@@H](O)[C@@H]1O [GlcNH6S-IdoA2S-anM6S, O-α-glucosamine 6-sulphate)-(1-4)-L-O-(α-iduronic acid 2-sulphate)-(1-4)-D-β-2,5-anhydro-mannitol 6-sulphate]",kcat. (turnover number),[1],0.11 mol/min per mol of enzyme
same,Relative catalytic efficiency*,[1],14
same,Km,[1],350 nM
same,pH optimum,[1],4.3
"O=C[C@H](O)[C@@H](O)[C@H](O[C@H]1O[C@H](CO)[C@@H](O)[C@H](O)[C@H]1NS(=O)(=O)O)[C@@H](O)C(=O)O [GlcNS-IdOA, O-(α-2-sulphaminoglucosamine)-(1-4)-O-L-iduronic acid]",Relative catalytic efficiency*,"heparan-N-sulfatase; 37°, pH (optimum)",359
same,Km,heparan-N-sulfatase; [4],35 µM
same,kcat. (turnover number),heparan-N-sulfatase; [4],9.19 mol/min per mol of enzyme
same,pH optimum of the enzyme for the substrate,heparan-N-sulfatase,5.5
same,Relative catalytic efficiency*,heparan-N-sulfatase; [2],1477
same,Km,heparan-N-sulfatase; [3],40.8 µM
same,kcat. (turnover number),heparan-N-sulfatase; [3],44† mol/min per mol of enzyme
"O=S(=O)(O)N[C@H]1[C@@H](O[C@H]2[C@H](O)[C@@H](OS(=O)(=O)O)C(O)O[C@H]2CO)O[C@H](CO)[C@@H](O)[C@@H]1O (stereo partly drawn) [GlcNS-Ido2S, O-(α-2-sulphaminoglucosamine)-(1-4)-L-6-idose 2-sulphate]",Relative catalytic efficiency*,"heparan-N-sulfatase; 37°, pH (optimum)",36
same,Km,heparan-N-sulfatase; [4],4.1 µM
same,kcat. (turnover number),heparan-N-sulfatase; [4],0.11 mol/min per mol of enzyme
same,pH optimum of the enzyme for the substrate,heparan-N-sulfatase,5.5
"O=C[C@H](O)[C@@H](O)[C@H](O[C@H]1O[C@H](CO)[C@@H](O)[C@H](O)[C@H]1NS(=O)(=O)O)[C@@H](O)CO [GlcNS-Ido, O-(α-2-sulphaminoglucosamine)-(1-4)-L-idose)]",Relative catalytic efficiency*,"heparan-N-sulfatase; 37°, pH (optimum)",7.40
same,Km,heparan-N-sulfatase; [4],7.7 µM
same,kcat. (turnover number),heparan-N-sulfatase; [4],0.0414 mol/min per mol of enzyme
same,pH optimum of the enzyme for the substrate,heparan-N-sulfatase,6.7
"O=C(O)[C@@H]1O[C@@H](O[C@H]2[C@H](O)[C@@H](CO)O[C@@H]2COS(=O)(=O)O)[C@H](OS(=O)(=O)O)[C@@H](O)[C@@H]1O [IdoA2S-anM6S, L-O-(α-iduronic acid 2-sulphate)-(1-4)-D-β-2,5-anhydro-mannitol 6-sulphate]",pH optimum,iduronate-2-sulfatase,4.0
same,Km,iduronate-2-sulfatase; [5],4000 nM
same,kcat. (turnover no.),iduronate-2-sulfatase; [5],2114 mol/min per mol of enzyme
same,Relative catalytic efficiency,iduronate-2-sulfatase; [5],63.0
same,increase in binding affinity (Km),iduronate-2-sulfatase; compared with IdoA2S-anM,5 fold
same,increase in turnover (Kcat),iduronate-2-sulfatase; compared with IdoA2S-anM,13 fold
same,increase in catalytic activity,iduronate-2-sulfatase; compared with IdoA2S-anM (addition of a 6-sulfate ester group),63 fold
same,Km,iduronate-2-sulfatase; [6],2500 nM
same,kcat. (turnover no.),iduronate-2-sulfatase; [6],905 mol/min per mol of enzyme
same,Relative catalytic efficiency,iduronate-2-sulfatase; [6],43.1
"O=C(O)[C@@H]1O[C@@H](O[C@H]2[C@H](O)[C@@H](CO)O[C@@H]2CO)[C@H](OS(=O)(=O)O)[C@@H](O)[C@@H]1O [IdoA2S-anM, L-O-(α-iduronic acid 2-sulphate-(1-4)-D-β-2,5-anhydro-mannitol]",pH optimum,iduronate-2-sulfatase,5.4
same,Km,iduronate-2-sulfatase; [5],19200 nM
same,kcat. (turnover no.),iduronate-2-sulfatase; [5],161 mol/min per mol of enzyme
same,Relative catalytic efficiency,iduronate-2-sulfatase; [5],1.0
[Cl-].[Cl-].[Mg+2] [magnesium chloride],effect of salt on activity of the enzyme against the substrates,iduronate-2-sulfatase,no effect or increase the activity
[Cl-].[Na+] [sodium chloride],effect of salt on activity of the enzyme against the substrates,iduronate-2-sulfatase,inhibitory
O=P(O)(O)O [sodium phosphate],effect of salt on activity of the enzyme against the substrates,iduronate-2-sulfatase,inhibitory
O=S(=O)([O-])[O-].[Na+].[Na+] [sodium sulfate],effect of salt on activity of the enzyme against the substrates,iduronate-2-sulfatase,inhibitory
L-O-(α-iduronic acid 2 sulphate)-(1-4)-D-β-(α-2-sulphaminoglucosamine)-(1-4)-O-(β-D-glucuronic or α-L-iduronic acid)-(1-4) D-O(α-N-acetylglucosamine-(1-3)-D-O-]-gulonic acid [IdoA2S-GlcNS-UA-GlcNAc-GlcOA],pH optimum,iduronate-2-sulfatase,5.4
same,Km,iduronate-2-sulfatase; [5],1900 nM
same,kcat. (turnover no.),iduronate-2-sulfatase; [5],756 mol/min per mol of enzyme
same,Relative catalytic efficiency,iduronate-2-sulfatase; [5],47.5
L-O-(α-iduronic acid 2 sulphate)-D-β-α-glucosamine 6-sulphate)-(1-4)-L-O-(α-iduronic acid 2-sulphate)-(1-4)-D-O-anhydro-mannitol 6-sulphate [IdoA2S-GlcNH6S-IdoA2S-anM6S],pH range of activity,iduronate-2-sulfatase,4.2-6.0
same,pH optimum,iduronate-2-sulfatase,5.4
same,activity as % of maximal activity,iduronate-2-sulfatase,~12%
same,Km,iduronate-2-sulfatase; [5],2500 nM
same,kcat. (turnover no.),iduronate-2-sulfatase; [5],1925 mol/min per mol of enzyme
same,Relative catalytic efficiency,iduronate-2-sulfatase; [5],91.7
same,pH of maximal activity,iduronate-2-sulfatase,5.1
"O-(α-L-idopyranosyluronic acid 2-sulfate)-(1-3)-2,5-anhydro-D-talitol 4-sulfate [IdoA2S-anT4S]",pH optimum,iduronate-2-sulfatase,5.0
same,Km,iduronate-2-sulfatase; [5],700 nM
same,kcat. (turnover no.),iduronate-2-sulfatase; [5],507 mol/min per mol of enzyme
same,Relative catalytic efficiency,iduronate-2-sulfatase; [5],86.2
same,Km,iduronate-2-sulfatase; [6],1100 nM
same,kcat. (turnover no.),iduronate-2-sulfatase; [6],270 mol/min per mol of enzyme
same,Relative catalytic efficiency,iduronate-2-sulfatase; [6],29.3
"O-(α-L-iduronic acid 2-sulphate)-(1-4)-D-β-(α-2-sulphaminoglucosamine 6 sulphate)-(1-4)-L-O-(α-iduronic acid 2-sulphate)-(1-4)-D-O-2,5-anhydro[1-^3H]mannitol 6-sulphate [IdoA2S-GlcNS6S-IdoA2S-anM6S]",pH range of activity,iduronate-2-sulfatase,5.0-6.5
same,pH optimum,iduronate-2-sulfatase,5.7
same,activity as % of maximal activity,iduronate-2-sulfatase,~90%
same,Km,iduronate-2-sulfatase; [5],1400 nM
same,kcat. (turnover no.),iduronate-2-sulfatase; [5],2177 mol/min per mol of enzyme
same,Relative catalytic efficiency,iduronate-2-sulfatase; [5],186.7
same,pH of maximal activity,iduronate-2-sulfatase,5.7
manganese chloride,effect of salt on activity of the enzyme against the substrates,iduronate-2-sulfatase,no effect or increase the activity
